Usually ED50 stands for the dose that gives a 50% effect, or the effect in half of the subjects. As a reminder, the Ki is the dissociation constant of the complex between target and ligand, obtained from inhibition or displacement.

We go through 10 compounds from ChEMBL document CHEMBL1130416, “Synthesis and biological activities of (R)-5,6-dihydro-N,N-dimethyl-4H-imidazo[4,5,1-ij]quinolin-5-amine and its metabolites” (J Med Chem, 1997).

Data set [1] has as its system Mus musculus. Put plainly: Hypothermic effects in mice when administered subcutaneously. The data set is classed as functional. To be noted: sc.
Data set [2] deals with T1, 5-hydroxytryptamine receptor 1A (Homo sapiens, UniProt P08908).
T1 sequence (P08908 whole entry): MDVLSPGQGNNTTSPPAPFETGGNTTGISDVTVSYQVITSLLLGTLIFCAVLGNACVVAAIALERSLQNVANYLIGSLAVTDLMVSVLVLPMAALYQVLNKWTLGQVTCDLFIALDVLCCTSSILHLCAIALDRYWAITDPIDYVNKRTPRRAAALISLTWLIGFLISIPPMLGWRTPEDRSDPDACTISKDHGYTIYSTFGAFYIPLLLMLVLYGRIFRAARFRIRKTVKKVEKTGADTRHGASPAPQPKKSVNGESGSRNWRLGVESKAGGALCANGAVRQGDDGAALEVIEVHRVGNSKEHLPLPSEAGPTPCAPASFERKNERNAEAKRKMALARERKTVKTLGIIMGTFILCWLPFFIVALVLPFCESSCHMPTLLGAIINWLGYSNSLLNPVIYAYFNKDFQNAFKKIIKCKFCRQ

In data set [3] the target is T2, D(2) dopamine receptor (Homo sapiens, UniProt P14416).
Data set [4] deals with T3, D(3) dopamine receptor (Homo sapiens, UniProt P35462).
Data set [5] concerns the target T1, 5-hydroxytryptamine receptor 1A. The source holds these as a separate data set.
Description: Binding affinity towards Serotonin 5-hydroxytryptamine 1A receptor by displacement of [3H]-(+)-8-OH-DPAT.
Data set [6] is filed under the species Canis familiaris. The data set is described as follows: Metabolism of compound in dog S9 microsomes ('++++' indicates largest observed peak). The class given is ADME, Canis lupus familiaris.
Data set [7] in a line: Metabolism of compound in monkey S9 microsomes ('+++'indicates 50-80% largest observed peak). The class given is ADME, Microsome. To be noted: cercopithecidae.
Data set [8] can be described thus: Metabolism of compound in human liver slices (male) ('++++' indicates largest observed peak). The class given is ADME, tissue-based.
Data set [9] is described as follows: Metabolism of compound in human microsomes ('++++' indicates largest observed peak). The class given is ADME, Microsome.
Data set [10] is filed under the species Mus musculus. The data set is described as follows: Metabolism of compound in Mouse S9 microsomes ('++++'indicates largest observed peak). The data set is classed as ADME.
For data set [11], the species on record is Rattus norvegicus. The data set is described as follows: Metabolism of compound in rat S9 microsomes ('++++' indicates largest observed peak). The class given is ADME.
A short description of data set [12]: Metabolism of compound in rabbit S9 microsomes ('+''indicates <20% largest observed peak). The data set is classed as ADME, Oryctolagus cuniculus, Microsome.
Data set [13] in a line: Metabolism of compound in mini pig S9 microsomes ('++++' indicates largest observed peak). The class given is ADME, Sus scrofa, Microsome.
For data set [14], the target named is T2, D(2) dopamine receptor. This is another data set of the same source.
Description: Binding affinity towards Dopamine receptor D2 by displacement of [3H]U-86170.
The target in data set [15] is T3, D(3) dopamine receptor. The source holds these as a separate data set.
Description: Binding affinity towards Dopamine receptor D3 by displacement of [3H](+)-7-OH-DPAT.
Data set [16] relates to Mus musculus. The data set is described as follows: Hypothermic effects in mice when administered orally. To be noted: po. The data set is classed as functional.
Data set [17] is filed under the species Rattus norvegicus. Put plainly: The stability relative to the U-93385 compound.
For data set [18], the species on record is Canis familiaris. Put plainly: Metabolism of compound in dog S9 microsomes ('++''indicates 20-50% largest observed peak). The data set is classed as ADME, Canis lupus familiaris.
Data set [19] is described as follows: Metabolism of compound in monkey S9 microsomes ('++''indicates 20-50% largest observed peak). The data set is classed as ADME, Microsome. To be noted: cercopithecidae.
Data set [20] can be described thus: Metabolism of compound in human liver slices (male) ('++''indicates 20-50% largest observed peak). The class given is ADME, tissue-based.
The nature of data set [21]: Metabolism of compound in human microsomes ('+''indicates <20% largest observed peak). The data set is classed as ADME, Microsome.
For data set [22], the species on record is Mus musculus. The data set is described as follows: Metabolism of compound in mouse S9 microsomes ('+''indicates <20% largest observed peak). The class given is ADME.
Data set [23] in a line: Metabolism of compound in mini pig S9 microsomes ('+''indicates <20% largest observed peak). The class given is ADME, Sus scrofa, Microsome.
The species named for data set [24] is Rattus norvegicus. Put plainly: Metabolism of compound in rat S9 microsomes ('+''indicates <20% largest observed peak). The class given is ADME.
For data set [25], the species on record is Canis familiaris. The data set is described as follows: Metabolism of compound in dog S9 microsomes; Trace. The data set is classed as ADME, Canis lupus familiaris.
Data set [26] can be described thus: Metabolism of compound in monkey S9 microsomes ('++++' indicates largest observed peak). To be noted: cercopithecidae. The class given is ADME, Microsome.
Data set [27] is described as follows: Metabolism of compound in human microsomes; Trace. The data set is classed as ADME, Microsome.
The species entered for data set [28] is Mus musculus. Put plainly: Metabolism of compound in mouse S9 microsomes ('++++' indicates largest observed peak). The data set is classed as ADME.
Data set [29] in a line: Metabolism of compound in rabbit S9 microsomes ('++++' indicates largest observed peak). The class given is ADME, Oryctolagus cuniculus, Microsome.
Data set [30] can be described thus: Metabolism of compound in monkey S9 microsomes ('+''indicates <20% largest observed peak). The class given is ADME, Microsome. To be noted: cercopithecidae.
A short description of data set [31]: Metabolism of compound in human liver slices (male) ('+''indicates <20% largest observed peak). The class given is ADME, tissue-based.
For data set [32], the species on record is Rattus norvegicus. Put plainly: Metabolism of compound in rat S9 microsomes; Trace. The data set is classed as ADME.

T2 sequence (P14416 whole entry): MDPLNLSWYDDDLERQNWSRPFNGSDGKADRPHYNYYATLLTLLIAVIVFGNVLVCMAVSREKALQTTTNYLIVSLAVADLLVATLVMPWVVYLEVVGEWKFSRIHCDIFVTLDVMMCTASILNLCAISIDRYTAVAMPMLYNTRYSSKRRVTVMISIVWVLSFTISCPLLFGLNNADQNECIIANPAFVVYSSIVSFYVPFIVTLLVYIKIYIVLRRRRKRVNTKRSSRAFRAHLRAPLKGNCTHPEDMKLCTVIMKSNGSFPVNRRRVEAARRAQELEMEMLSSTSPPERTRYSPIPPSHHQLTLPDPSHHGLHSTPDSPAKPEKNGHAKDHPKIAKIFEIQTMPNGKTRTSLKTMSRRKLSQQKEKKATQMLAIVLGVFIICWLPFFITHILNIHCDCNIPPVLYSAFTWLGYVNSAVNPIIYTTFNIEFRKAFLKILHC
T3 sequence (P35462 whole entry): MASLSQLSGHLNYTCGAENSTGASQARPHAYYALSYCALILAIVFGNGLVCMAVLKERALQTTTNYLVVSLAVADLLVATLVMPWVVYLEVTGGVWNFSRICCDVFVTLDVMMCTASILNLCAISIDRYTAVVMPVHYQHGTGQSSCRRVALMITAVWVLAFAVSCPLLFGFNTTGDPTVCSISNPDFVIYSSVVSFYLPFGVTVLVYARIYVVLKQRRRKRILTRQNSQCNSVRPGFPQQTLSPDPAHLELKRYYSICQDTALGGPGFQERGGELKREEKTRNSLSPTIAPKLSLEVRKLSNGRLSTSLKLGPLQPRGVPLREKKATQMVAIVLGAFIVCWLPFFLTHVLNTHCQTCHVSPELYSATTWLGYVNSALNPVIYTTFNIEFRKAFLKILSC

For the compound `CN(C)[C@H]1Cc2cccc3ncn(c23)C1`, it took a dose of 17.3 mg/kg to reach the 50% effect level with Mus musculus [1] (ED50). Moreover, the inhibition constant Ki result (in data set [2]; at D(2) dopamine receptor [3]; on D(3) dopamine receptor [4]) was “Not Active” throughout.
For the compound `CN[C@H]1Cc2cccc3nc(O)n(c23)C1`, the Ki entry (in data set [2]; at D(2) dopamine receptor [3]; on D(3) dopamine receptor [4]) was “Not Active” each time.
On to `CN(C)[C@@H]1Cc2cccc3ncn(c23)C1`, for which the Ki in [5] is greater than 3520 nM; on D(2) dopamine receptor [14], 1280 nM; on D(3) dopamine receptor [15] it was 2950 nM. Also, the Metabolism entry (in the data set listed under Canis familiaris [6]; in data set [7]; in data set [8]; in data set [9]; in the data set listed under Mus musculus [10]; in the data set filed under Rattus norvegicus [11]) was “Partially active” each time. In addition, the Metabolism entry in [12] and in data set [13] was “Partially active” in each case. Also, the ED50 in the data set with Mus musculus [16] and in the data set with Mus musculus [1] was 0.073 mg/kg in each case. The Relative stability in the data set listed under Rattus norvegicus [17] worked out at 1.
Consider `CN[C@@H]1Cc2cccc3ncn(c23)C1`, for which the Ki in data set [5] is greater than 3260 nM; on D(2) dopamine receptor [14] it was 355 nM; on D(3) dopamine receptor [15], 2460 nM. Besides, the Metabolism entry (in the data set filed under Canis familiaris [18]; in data set [19]; in [20]; in data set [21]; in the data set filed under Mus musculus [22]; in [12]) was “Partially active” each time. The Metabolism result (in [23]; in the data set filed under Rattus norvegicus [24]) was “Partially active” throughout. Besides, the ED50 in the data set on Mus musculus [16] came out at 0.73 mg/kg; in the data set with Mus musculus [1] it was 0.31 mg/kg. In the data set listed under Rattus norvegicus [17], the Relative stability is on record as 0.86.
The compound `CN(C)[C@H]1Cc2cccc3nc(O)n(c23)C1` showed an ED50 in the data set on Mus musculus [1] of 17.3 mg/kg. The Ki result (in [2]; at D(2) dopamine receptor [3]; at D(3) dopamine receptor [4]) was “Not Active” each time.
With `CN(C)[C@@H]1Cc2cccc3[nH]c(=O)n(c23)C1`, the Metabolism entry (in the data set listed under Canis familiaris [25]; in data set [26]; in data set [20]; in data set [27]; in the data set listed under Mus musculus [28]; in data set [23]) was “Partially active” in each case. The Metabolism result (in the data set filed under Rattus norvegicus [24]; in data set [29]) was “Partially active” in each case. In addition, the Ki on D(2) dopamine receptor [14] was determined as 12 nM; at D(3) dopamine receptor [15], 1930 nM. In addition, the ED50 worked out at 1.3 mg/kg in the data set on Mus musculus [16] and 0.41 mg/kg with Mus musculus [1].
On to `CCCN[C@@H]1Cc2cccc3nc(O)n(c23)C1`, for which the Ki on D(3) dopamine receptor [15] was 36 nM. The ED50 was found to be 0.41 mg/kg in the data set on Mus musculus [16] and 0.01 mg/kg in the data set with Mus musculus [1].
Turning to `CC(C)C[C@H]1C(=O)N2CCC[C@H]2[C@]2(O)O[C@](NC(=O)[C@@H]3C=C4c5cccc6[nH]c(Br)c(c56)C[C@H]4N(C)C3)(C(C)C)C(=O)N12` [BROMOCRIPTINE], the Ki is 24 nM in [5], 10 nM on D(2) dopamine receptor [14] and 87 nM at D(3) dopamine receptor [15].
In the case of `CCCN(CCC)CCc1cccc2c1CC(=O)N2` [ROPINIROLE], the Ki in data set [5] worked out at 1710 nM; at D(2) dopamine receptor [14], 7.2 nM.
Take `CN[C@@H]1Cc2cccc3[nH]c(=O)n(c23)C1` [SUMANIROLE]: the Ki turned out to be 73 nM in [5] and 2330 nM at D(3) dopamine receptor [15]. Moreover, the Metabolism entry (in [30]; in data set [31]; in the data set listed under Mus musculus [22]; in the data set filed under Rattus norvegicus [32]; in data set [12]) was “Partially active” each time. For the same compound, the figures for the ED50 with Mus musculus [16] and in the data set on Mus musculus [1] were 0.41 mg/kg and 0.73 mg/kg, respectively.
